# Tests used:
# Assay type in all cases: in vivo
# [1] = system: ducksalad (Heteranthera limosa); assay: Test B flooded paddy test; settings: Flood, 500 g ai/ha; 0 to 100 scale where 0 is no effect and 100 is complete control; 13 to 15 d
# Method in brief: (§1)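 Flooding to 3 cm over soil accompanied treatment, which consisted of adding compound to the standing water around 2-leaf plants; depth was then maintained. Visual assessment versus controls followed at 13 to 15 d (scale 0–100, 0 meaning no effect).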
# rice (Oryra sativa) = assay: Test B flooded paddy test; settings: Flood, 500 g ai/ha; 0 to 100 scale where 0 is no effect and 100 is complete control; 13 to 15 d
# Method in brief: as §1
# [2] = system: barnyardgrass (Echinochloa crus-galli); assay: Test B flooded paddy test; settings: Flood, 500 g ai/ha; 0 to 100 scale where 0 is no effect and 100 is complete control; 13 to 15 d
# Method in brief: as §1
# [3] = system: sedge, umbrella (small-flower umbrella sedge, Cyperus difformis); assay: Test B flooded paddy test; settings: Flood, 500 g ai/ha; 0 to 100 scale where 0 is no effect and 100 is complete control; 13 to 15 d
# Method in brief: as §1
# [4] = system: ragweed (common ragweed, Ambrosia elatior); assay: Test A preemergence; settings: for Plant response rating, Ragweed: 125 g ai/ha, preemergence, 0 to 100 scale (0 no effect, 100 complete control); for Ragweed plant response rating (0 to 100 scale, 0 is no effect, 100 is complete control): Preemergence, 500 g ai/ha, visual injury approx. 10 d
# Method in brief: (§2)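 Compounds were formulated in a non-phytotoxic solvent mixture with surfactant and applied as a preemergence directed soil spray after seeding, or sprayed postemergence over plants 2 to 10 cm tall at the one- to two-leaf stage. Evaluation after about 10 d compared treated with untreated controls, using a scale from 0 (no effect) to 100 (complete control).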
# Kochia (Kochia scoparia) [5] = assay: Test A preemergence; settings: for Plant response rating, Kochia: 125 g ai/ha, preemergence, 0 to 100 scale (0 no effect, 100 complete control); for Kochia plant response rating (0 to 100 scale, 0 is no effect, 100 is complete control): Preemergence, 500 g ai/ha, visual injury approx. 10 d
# Method in brief: as §2
# [6] = system: ryegrass, Italian (Italian ryegrass, Lolium multiflorum); assay: Test A preemergence; settings: for Plant response rating, Ryegrass, Italian: 125 g ai/ha, preemergence, 0 to 100 scale (0 no effect, 100 complete control); for Ryegrass, Italian plant response rating (0 to 100 scale, 0 is no effect, 100 is complete control): Preemergence, 500 g ai/ha, visual injury approx. 10 d
# Method in brief: as §2
# [7] = system: barnyardgrass (Echinochloa crus-galli); assay: Test A preemergence; settings: for Plant response rating, Barnyardgrass: 125 g ai/ha, preemergence, 0 to 100 scale (0 no effect, 100 complete control); for Barnyardgrass plant response rating (0 to 100 scale, 0 is no effect, 100 is complete control): Preemergence, 500 g ai/ha, visual injury approx. 10 d
# Method in brief: as §2
# [8] = system: pigweed (Amaranthus retroflexus); assay: Test A preemergence; settings: for Plant response rating, Pigweed: 125 g ai/ha, preemergence, 0 to 100 scale (0 no effect, 100 complete control); for Pigweed plant response rating (0 to 100 scale, 0 is no effect, 100 is complete control): Preemergence, 500 g ai/ha, visual injury approx. 10 d
# [9] = system: giant foxtail (Setaria faberii); assay: Test A preemergence; settings: for Plant response rating, Foxtail, Giant: 125 g ai/ha, preemergence, 0 to 100 scale (0 no effect, 100 complete control); for Foxtail, Giant plant response rating (0 to 100 scale, 0 is no effect, 100 is complete control): Preemergence, 500 g ai/ha, visual injury approx. 10 d
# Method in brief: as §2
# [10] = system: ragweed (common ragweed, Ambrosia elatior); assay: Test A postemergence; settings: postemergence; for Ragweed plant response rating: 125 g ai/ha, visual injury rating on 0 to 100 scale (0 no effect, 100 complete control), approx. 10 d; for Plant response rating, Ragweed: 500 g ai/ha, 0 to 100 scale, 0 no effect, 100 complete control
# Method in brief: as §2
# [11] = system: Galium (catchweed bedstraw, Galium aparine); assay: Test A postemergence; settings: postemergence; for Galium plant response rating: 125 g ai/ha, visual injury rating on 0 to 100 scale (0 no effect, 100 complete control), approx. 10 d; for Plant response rating, Galium: 500 g ai/ha, 0 to 100 scale, 0 no effect, 100 complete control
# Method in brief: as §2
# Kochia (Kochia scoparia) [12] = assay: Test A postemergence; settings: postemergence; for Kochia plant response rating: 125 g ai/ha, visual injury rating on 0 to 100 scale (0 no effect, 100 complete control), approx. 10 d; for Plant response rating, Kochia: 500 g ai/ha, 0 to 100 scale, 0 no effect, 100 complete control
# Method in brief: as §2
# [13] = system: ryegrass, Italian (Italian ryegrass, Lolium multiflorum); assay: Test A postemergence; settings: postemergence; for Ryegrass, Italian plant response rating: 125 g ai/ha, visual injury rating on 0 to 100 scale (0 no effect, 100 complete control), approx. 10 d; for Plant response rating, Ryegrass, Italian: 500 g ai/ha, 0 to 100 scale, 0 no effect, 100 complete control
# Method in brief: as §2
# [14] = system: blackgrass (Alopecurus myosuroides); assay: Test A postemergence; settings: postemergence; for Blackgrass plant response rating: 125 g ai/ha, visual injury rating on 0 to 100 scale (0 no effect, 100 complete control), approx. 10 d; for Plant response rating, Blackgrass: 500 g ai/ha, 0 to 100 scale, 0 no effect, 100 complete control
# Method in brief: as §2
# [15] = system: barnyardgrass (Echinochloa crus-galli); assay: Test A postemergence; settings: postemergence; for Barnyardgrass plant response rating: 125 g ai/ha, visual injury rating on 0 to 100 scale (0 no effect, 100 complete control), approx. 10 d; for Plant response rating, Barnyardgrass: 500 g ai/ha, 0 to 100 scale, 0 no effect, 100 complete control
# Method in brief: as §2
# [16] = system: wheat (Triticum aestivum); assay: Test A postemergence; settings: postemergence; for Wheat plant response rating: 125 g ai/ha, visual injury rating on 0 to 100 scale (0 no effect, 100 complete control), approx. 10 d; for Plant response rating, Wheat: 500 g ai/ha, 0 to 100 scale, 0 no effect, 100 complete control
# Method in brief: as §2
# corn (Zea mays) = assay: Test A postemergence; settings: postemergence; for Corn plant response rating: 125 g ai/ha, visual injury rating on 0 to 100 scale (0 no effect, 100 complete control), approx. 10 d; for Plant response rating, Corn: 500 g ai/ha, 0 to 100 scale, 0 no effect, 100 complete control
# Method in brief: as §2
# [17] = system: pigweed (Amaranthus retroflexus); assay: Test A postemergence; settings: postemergence; for Pigweed plant response rating: 125 g ai/ha, visual injury rating on 0 to 100 scale (0 no effect, 100 complete control), approx. 10 d; for Plant response rating, Pigweed: 500 g ai/ha, 0 to 100 scale, 0 no effect, 100 complete control
# Method in brief: as §2
# [18] = system: giant foxtail (Setaria faberii); assay: Test A postemergence; settings: postemergence; for Foxtail, Giant plant response rating: 125 g ai/ha, visual injury rating on 0 to 100 scale (0 no effect, 100 complete control), approx. 10 d; for Plant response rating, Foxtail, Giant: 500 g ai/ha, 0 to 100 scale, 0 no effect, 100 complete control
# Method in brief: as §2
SMILES,"Plant response rating, Ducksalad [1]","Plant response rating, Rice (rice (Oryra sativa))","Plant response rating, Barnyardgrass [2]","Plant response rating, Sedge, Umbrella [3]","Plant response rating, Ragweed [4]","Ragweed plant response rating (0 to 100 scale, 0 is no effect, 100 is complete control) [4]","Plant response rating, Kochia (Kochia (Kochia scoparia) [5])","Kochia plant response rating (0 to 100 scale, 0 is no effect, 100 is complete control) (Kochia (Kochia scoparia) [5])","Plant response rating, Ryegrass, Italian [6]","Ryegrass, Italian plant response rating (0 to 100 scale, 0 is no effect, 100 is complete control) [6]","Plant response rating, Barnyardgrass [7]","Barnyardgrass plant response rating (0 to 100 scale, 0 is no effect, 100 is complete control) [7]","Plant response rating, Pigweed [8]","Pigweed plant response rating (0 to 100 scale, 0 is no effect, 100 is complete control) [8]","Plant response rating, Foxtail, Giant [9]","Foxtail, Giant plant response rating (0 to 100 scale, 0 is no effect, 100 is complete control) [9]",Ragweed plant response rating [10],"Plant response rating, Ragweed [10]",Galium plant response rating [11],"Plant response rating, Galium [11]",also measured
O=C1NCC(c2cccc(OC(F)F)c2)C1C(=O)Nc1cccc(OC(F)F)c1 (stereo not drawn) [Compound 422],50,0,0,0,0,0,0,0,0,0,40,70,20,30,60,70,0,0,30,70,"Kochia plant response rating (Kochia (Kochia scoparia) [12]): 50; Plant response rating, Kochia (Kochia (Kochia scoparia) [12]): 60; Ryegrass, Italian plant response rating [13]: 0; Plant response rating, Ryegrass, Italian [13]: 0; Blackgrass plant response rating [14]: 30; Plant response rating, Blackgrass [14]: 50; Barnyardgrass plant response rating [15]: 50; Plant response rating, Barnyardgrass [15]: 60; Wheat plant response rating [16]: 0; Plant response rating, Wheat [16]: 0; Corn plant response rating (corn (Zea mays)): 0; Plant response rating, Corn (corn (Zea mays)): 0; Pigweed plant response rating [17]: 40; Plant response rating, Pigweed [17]: 60; Foxtail, Giant plant response rating [18]: 50; Plant response rating, Foxtail, Giant [18]: 60"
COc1cccc(NC(=O)C2C(=O)NCC2c2cccc(OC(F)F)c2)c1F (stereo not drawn) [Compound 426],40,0,0,0,0,0,0,0,0,0,50,80,0,30,80,90,0,0,0,0,"Kochia plant response rating (Kochia (Kochia scoparia) [12]): 0; Plant response rating, Kochia (Kochia (Kochia scoparia) [12]): 0; Ryegrass, Italian plant response rating [13]: 0; Plant response rating, Ryegrass, Italian [13]: 0; Blackgrass plant response rating [14]: 0; Plant response rating, Blackgrass [14]: 0; Barnyardgrass plant response rating [15]: 30; Plant response rating, Barnyardgrass [15]: 70; Wheat plant response rating [16]: 0; Plant response rating, Wheat [16]: 0; Corn plant response rating (corn (Zea mays)): 0; Plant response rating, Corn (corn (Zea mays)): 0; Pigweed plant response rating [17]: 0; Plant response rating, Pigweed [17]: 0; Foxtail, Giant plant response rating [18]: 20; Plant response rating, Foxtail, Giant [18]: 60"
O=C1NCC(c2cccc(OC(F)F)c2)C1C(=O)Nc1ccccc1OC(F)F (stereo not drawn) [Compound 427],100,0,40,0,0,40,30,80,0,30,40,90,0,40,90,90,0,20,40,50,"Kochia plant response rating (Kochia (Kochia scoparia) [12]): 0; Plant response rating, Kochia (Kochia (Kochia scoparia) [12]): 20; Ryegrass, Italian plant response rating [13]: 0; Plant response rating, Ryegrass, Italian [13]: 20; Blackgrass plant response rating [14]: 20; Plant response rating, Blackgrass [14]: 40; Barnyardgrass plant response rating [15]: 60; Plant response rating, Barnyardgrass [15]: 80; Wheat plant response rating [16]: 0; Plant response rating, Wheat [16]: 20; Corn plant response rating (corn (Zea mays)): 0; Plant response rating, Corn (corn (Zea mays)): 20; Pigweed plant response rating [17]: 0; Plant response rating, Pigweed [17]: 0; Foxtail, Giant plant response rating [18]: 50; Plant response rating, Foxtail, Giant [18]: 80"
